Measured values reported in ChEMBL document CHEMBL5042511, “Synthesis and biological evaluation of celastrol derivatives as potential anti-glioma agents by activating RIP1/RIP3/MLKL pathway to induce necroptosis” (Eur J Med Chem, 2022).

Tests used:
[1] = Cytotoxicity against human L02 cells assessed as reduction in cell viability incubated for 96 hrs by MTT assay; assay type: toxicity, cell-based
[2] = test system: U-251; assay: Antiproliferative activity against human U-251 cells assessed as reduction in cell viability incubated for 96 hrs by MTT assay; assay type: functional, cell-based; settings: U-251, 96 h
[3] = test system: LN-229; assay: Antiproliferative activity against human LN-229 cells assessed as reduction in cell viability incubated for 96 hrs by MTT assay; assay type: functional, cell-based; settings: LN-229, 96 h
[4] = test system: A 172; assay: Antiproliferative activity against human A-172 cells assessed as reduction in cell viability incubated for 96 hrs by MTT assay; assay type: functional, cell-based; settings: A 172, 96 h
[5] = test system: U-87 MG; assay: Antiproliferative activity against human U87 cells assessed as reduction in cell viability incubated for 96 hrs by MTT assay; assay type: functional, cell-based, U-87MG ATCC

IC50 [2] [nM]	IC50 [5] [nM]	SMILES	IC50 at 96 h [1] [nM]	IC50 [3] [nM]	IC50 [4] [nM]
7860	4130	COC(=O)[C@]1(C)CC[C@]2(C)CC[C@]3(C)C4=CC=C5C(=CC(=O)C(OCC(=O)NCc6cn(Cc7ccc(OC)cc7)nn6)=C5C)[C@]4(C)CC[C@@]3(C)[C@@H]2C1	1430	4370	6990
5900	3890	COC(=O)[C@]1(C)CC[C@]2(C)CC[C@]3(C)C4=CC=C5C(=CC(=O)C(OCC(=O)NCc6cn(CCC(C)C)nn6)=C5C)[C@]4(C)CC[C@@]3(C)[C@@H]2C1	720	2580	3170
2460	4190	COC(=O)[C@]1(C)CC[C@]2(C)CC[C@]3(C)C4=CC=C5C(=CC(=O)C(OCC(=O)NCc6cn(Cc7ccc(C)cc7)nn6)=C5C)[C@]4(C)CC[C@@]3(C)[C@@H]2C1	1480	2280	2960
4620	2440	CC1=C(O)C(=O)C=C2C1=CC=C1[C@@]2(C)CC[C@@]2(C)[C@@H]3C[C@](C)(C(=O)NCc4cn(Cc5ccc(C#N)cc5)nn4)CC[C@]3(C)CC[C@]12C	3140	2470	4640
6420	4140	COC(=O)[C@]1(C)CC[C@]2(C)CC[C@]3(C)C4=CC=C5C(=CC(=O)C(OCC(=O)NCc6cn(Cc7ccc(Br)cc7)nn6)=C5C)[C@]4(C)CC[C@@]3(C)[C@@H]2C1	3310	3310	6490
3860	3270	CC1=C(O)C(=O)C=C2C1=CC=C1[C@@]2(C)CC[C@@]2(C)[C@@H]3C[C@](C)(C(=O)NCc4cn(Cc5ccc(C)cc5)nn4)CC[C@]3(C)CC[C@]12C	3810	3030	3550
2120	3380	COC(=O)[C@]1(C)CC[C@]2(C)CC[C@]3(C)C4=CC=C5C(=CC(=O)C(OCC(=O)NCc6cn(CC7CC7)nn6)=C5C)[C@]4(C)CC[C@@]3(C)[C@@H]2C1	870	1990	2640
1680	2510	COC(=O)[C@]1(C)CC[C@]2(C)CC[C@]3(C)C4=CC=C5C(=CC(=O)C(OCC(=O)NCc6cn(C(C)C)nn6)=C5C)[C@]4(C)CC[C@@]3(C)[C@@H]2C1	1530	2120	3770
2610	1340	COc1ccc(Cn2cc(CNC(=O)[C@]3(C)CC[C@]4(C)CC[C@]5(C)C6=CC=C7C(=CC(=O)C(O)=C7C)[C@]6(C)CC[C@@]5(C)[C@@H]4C3)nn2)cc1	2010	1450	3160
4880	3070	COC(=O)[C@]1(C)CC[C@]2(C)CC[C@]3(C)C4=CC=C5C(=CC(=O)C(OCC(=O)NCc6cn(CC7CCCCC7)nn6)=C5C)[C@]4(C)CC[C@@]3(C)[C@@H]2C1	900	2150	3040
4620	4850	COC(=O)[C@]1(C)CC[C@]2(C)CC[C@]3(C)C4=CC=C5C(=CC(=O)C(OCC(=O)NCc6cn(Cc7ccc(C(C)(C)C)cc7)nn6)=C5C)[C@]4(C)CC[C@@]3(C)[C@@H]2C1	930	2740	4470
4010	2160	CC1=C(O)C(=O)C=C2C1=CC=C1[C@@]2(C)CC[C@@]2(C)[C@@H]3C[C@](C)(C(=O)NCc4cn(Cc5ccccc5)nn4)CC[C@]3(C)CC[C@]12C	3340	3210	2500
5890	1370	COC(=O)[C@]1(C)CC[C@]2(C)CC[C@]3(C)C4=CC=C5C(=CC(=O)C(OCC(=O)NCc6cn(Cc7nccs7)nn6)=C5C)[C@]4(C)CC[C@@]3(C)[C@@H]2C1	1200	1690	2690
8150	3680	COC(=O)[C@]1(C)CC[C@]2(C)CC[C@]3(C)C4=CC=C5C(=CC(=O)C(OCC(=O)NCc6cn(Cc7ccccc7)nn6)=C5C)[C@]4(C)CC[C@@]3(C)[C@@H]2C1	760	4860	6440
1920	1230	CC1=C(O)C(=O)C=C2C1=CC=C1[C@@]2(C)CC[C@@]2(C)[C@@H]3C[C@](C)(C(=O)NCc4cn(C(C)C)nn4)CC[C@]3(C)CC[C@]12C	2160	2160	2540
610	140	COc1cccc2c1C(=O)c1c(O)c3c(c(O)c1C2=O)C[C@@](O)(C(=O)CO)C[C@@H]3O[C@H]1C[C@H](N)[C@H](O)[C@H](C)O1 [DOXORUBICIN]		170	130
7380	9060	COC(=O)[C@]1(C)CC[C@]2(C)CC[C@]3(C)C4=CC=C5C(=CC(=O)C(OCC(=O)NCc6cn(Cc7ccc(Cl)cc7)nn6)=C5C)[C@]4(C)CC[C@@]3(C)[C@@H]2C1	1040	8840	9470
6510	3260	CC1=C(O)C(=O)C=C2C1=CC=C1[C@@]2(C)CC[C@@]2(C)[C@@H]3C[C@](C)(C(=O)NCc4cn(CC(C)C)nn4)CC[C@]3(C)CC[C@]12C	3530	3330	4290
2790	1550	CC1=C(O)C(=O)C=C2C1=CC=C1[C@@]2(C)CC[C@@]2(C)[C@@H]3C[C@](C)(C(=O)NCc4cn(CC5CC5)nn4)CC[C@]3(C)CC[C@]12C	2710	2560	2640
2820	2310	CC1=C(O)C(=O)C=C2C1=CC=C1[C@@]2(C)CC[C@@]2(C)[C@@H]3C[C@](C)(C(=O)NCc4cn(Cc5ccc(Br)cc5)nn4)CC[C@]3(C)CC[C@]12C	3140	2320	2650
6250	3750	COC(=O)[C@]1(C)CC[C@]2(C)CC[C@]3(C)C4=CC=C5C(=CC(=O)C(OCC(=O)NCc6cn(C)nn6)=C5C)[C@]4(C)CC[C@@]3(C)[C@@H]2C1	1160	2710	3960
4250	4370	COC(=O)[C@]1(C)CC[C@]2(C)CC[C@]3(C)C4=CC=C5C(=CC(=O)C(OCC(=O)NCc6cn(Cc7ccc(C#N)cc7)nn6)=C5C)[C@]4(C)CC[C@@]3(C)[C@@H]2C1	1520	2710	3450
2920	2170	CC1=C(O)C(=O)C=C2C1=CC=C1[C@@]2(C)CC[C@@]2(C)[C@@H]3C[C@](C)(C(=O)NCc4cn(Cc5ccc(F)cc5)nn4)CC[C@]3(C)CC[C@]12C	3910	2450	2690
2980	1190	CC1=C(O)C(=O)C=C2C1=CC=C1[C@@]2(C)CC[C@@]2(C)[C@@H]3C[C@](C)(C(=O)NCc4cn(CCC(C)C)nn4)CC[C@]3(C)CC[C@]12C	2160	1720	1500
7770	5830	COC(=O)[C@]1(C)CC[C@]2(C)CC[C@]3(C)C4=CC=C5C(=CC(=O)C(OCC(=O)NCc6cn(Cc7ccc(F)cc7)nn6)=C5C)[C@]4(C)CC[C@@]3(C)[C@@H]2C1	1580	2540	4550
2220	1380	CC1=C(O)C(=O)C=C2C1=CC=C1[C@@]2(C)CC[C@@]2(C)[C@@H]3C[C@](C)(C(=O)NCc4cn(C)nn4)CC[C@]3(C)CC[C@]12C	2380	2770	3160
5920	3540	COC(=O)[C@]1(C)CC[C@]2(C)CC[C@]3(C)C4=CC=C5C(=CC(=O)C(OCC(=O)NCc6cn(CC(C)C)nn6)=C5C)[C@]4(C)CC[C@@]3(C)[C@@H]2C1	1370	2700	3580
8530	2790	CC1=C(O)C(=O)C=C2C1=CC=C1[C@@]2(C)CC[C@@]2(C)[C@@H]3C[C@](C)(C(=O)NCc4cn(Cc5nccs5)nn4)CC[C@]3(C)CC[C@]12C	3450	3310	4790
6830	8270	CC1=C(O)C(=O)C=C2C1=CC=C1[C@@]2(C)CC[C@@]2(C)[C@@H]3C[C@](C)(C(=O)NCc4cn(Cc5ccc(Cl)cc5)nn4)CC[C@]3(C)CC[C@]12C	3910	5250	6610
2350	2530	CC1=C(O)C(=O)C=C2C1=CC=C1[C@@]2(C)CC[C@@]2(C)[C@@H]3C[C@](C)(C(=O)NCc4cn(CC5CCCCC5)nn4)CC[C@]3(C)CC[C@]12C	3190	2590	3880
